According to article PMC8206134, “Structural basis of mechano-chemical coupling by the mitotic kinesin KIF14” (Nature Communications, 2021):

What was measured:
KIF14 K735 (MT-K735) [1] = molecular target: T1, KIF14 K735 (MT-K735) (Mus musculus, UniProt L0N7N1); assay: cryo-EM structure; assay type: binding; settings: microtubule-bound; 4 mM ADP plus 2 mM AlCl3 and 10 mM KF; AlFx and Mg2+ densities near noise; open* conformation
T1 construct: core motor domain N391-L735, no neck-linker; GST tag cleaved (PreScission), E. coli BL21(DE3) pLysS; monomer; with Tubulin alpha chain (Sus scrofa, porcine brain); Tubulin beta chain (Sus scrofa, porcine brain)
T1 sequence (L0N7N1 391-735): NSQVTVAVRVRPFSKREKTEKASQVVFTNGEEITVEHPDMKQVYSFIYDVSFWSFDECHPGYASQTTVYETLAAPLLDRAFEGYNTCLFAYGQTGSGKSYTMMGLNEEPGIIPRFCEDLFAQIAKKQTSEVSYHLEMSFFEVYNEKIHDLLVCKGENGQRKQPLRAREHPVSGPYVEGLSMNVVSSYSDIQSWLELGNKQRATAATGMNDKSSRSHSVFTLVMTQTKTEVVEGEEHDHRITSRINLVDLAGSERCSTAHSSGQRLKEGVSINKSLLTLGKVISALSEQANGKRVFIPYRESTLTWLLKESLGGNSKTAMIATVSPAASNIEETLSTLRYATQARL

KIF14 K755 (MT-K755) = molecular target: T2, KIF14 K755 (MT-K755) (Mus musculus, UniProt L0N7N1); assay: malachite green phosphate assay; assay type: biochemical; settings: 1 mM ATP, 2 uM paclitaxel-stabilised microtubules, 50 nM KIF14, 1 mM MgCl2, PIPES pH 6.8
T2 construct: motor domain, neck-linker and part of first CC1 heptad N391-K755; GST tag cleaved (PreScission), E. coli BL21(DE3) pLysS; with Tubulin alpha chain (Sus scrofa, porcine brain); Tubulin beta chain (Sus scrofa, porcine brain)
T2 sequence (L0N7N1 391-755): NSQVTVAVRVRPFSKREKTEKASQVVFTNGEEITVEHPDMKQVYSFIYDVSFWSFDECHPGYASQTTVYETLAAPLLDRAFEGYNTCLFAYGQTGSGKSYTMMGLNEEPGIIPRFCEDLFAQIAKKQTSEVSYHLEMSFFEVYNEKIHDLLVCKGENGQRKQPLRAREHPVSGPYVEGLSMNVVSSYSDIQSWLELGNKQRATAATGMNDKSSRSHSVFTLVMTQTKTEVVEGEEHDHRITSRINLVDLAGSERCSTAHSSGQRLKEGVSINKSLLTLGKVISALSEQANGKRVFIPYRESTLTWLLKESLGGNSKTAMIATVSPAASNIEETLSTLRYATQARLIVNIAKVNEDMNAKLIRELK
Excerpt: (§1) malachite green phosphate assay on KIF14 […] (MT-[…]) | Microtubule-stimulated ATPase rate of […], […], […], and […] constructs

KIF14 K735 (MT-K735) [2] = molecular target: T1, KIF14 K735 (MT-K735); assay: malachite green phosphate assay; assay type: biochemical; settings: 1 mM ATP, 2 uM paclitaxel-stabilised microtubules, 50 nM KIF14, 1 mM MgCl2, PIPES pH 6.8
Excerpt: as §1

KIF14 K743 (MT-K743) = molecular target: T3, KIF14 K743 (MT-K743) (Mus musculus, UniProt L0N7N1); assay: malachite green phosphate assay; assay type: biochemical; settings: 1 mM ATP, 2 uM paclitaxel-stabilised microtubules, 50 nM KIF14, 1 mM MgCl2, PIPES pH 6.8
T3 construct: motor domain plus 8 neck-linker residues N391-N743; GST tag cleaved (PreScission), E. coli BL21(DE3) pLysS; monomer; with Tubulin alpha chain (Sus scrofa, porcine brain); Tubulin beta chain (Sus scrofa, porcine brain)
T3 sequence (L0N7N1 391-743): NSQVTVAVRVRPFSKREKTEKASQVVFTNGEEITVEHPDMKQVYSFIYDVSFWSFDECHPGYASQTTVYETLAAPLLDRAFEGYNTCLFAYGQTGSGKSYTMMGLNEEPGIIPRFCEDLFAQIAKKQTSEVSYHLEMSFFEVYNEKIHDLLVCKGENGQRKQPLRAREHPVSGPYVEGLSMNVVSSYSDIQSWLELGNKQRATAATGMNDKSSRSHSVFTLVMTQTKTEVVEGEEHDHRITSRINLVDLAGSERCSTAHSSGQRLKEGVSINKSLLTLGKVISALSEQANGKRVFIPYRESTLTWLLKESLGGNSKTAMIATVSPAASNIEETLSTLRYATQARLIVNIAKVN
Excerpt: as §1

KIF14 K748 (MT-K748) = molecular target: T4, KIF14 K748 (MT-K748) (Mus musculus, UniProt L0N7N1); assay: malachite green phosphate assay; assay type: biochemical; settings: 1 mM ATP, 2 uM paclitaxel-stabilised microtubules, 50 nM KIF14, 1 mM MgCl2, PIPES pH 6.8
T4 construct: motor domain plus 13 neck-linker residues N391-A748; GST tag cleaved (PreScission), E. coli BL21(DE3) pLysS; monomer; with Tubulin alpha chain (Sus scrofa, porcine brain); Tubulin beta chain (Sus scrofa, porcine brain)
T4 sequence (L0N7N1 391-748): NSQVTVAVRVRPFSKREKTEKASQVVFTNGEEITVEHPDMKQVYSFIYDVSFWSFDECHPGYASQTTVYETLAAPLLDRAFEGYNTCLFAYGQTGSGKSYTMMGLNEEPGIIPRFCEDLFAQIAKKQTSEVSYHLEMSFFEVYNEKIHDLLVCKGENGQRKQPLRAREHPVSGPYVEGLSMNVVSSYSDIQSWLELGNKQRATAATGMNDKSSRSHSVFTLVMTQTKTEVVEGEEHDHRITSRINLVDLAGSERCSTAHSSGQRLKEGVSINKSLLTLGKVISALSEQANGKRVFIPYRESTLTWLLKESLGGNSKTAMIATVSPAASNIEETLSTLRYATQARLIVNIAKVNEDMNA
Excerpt: as §1

[3] = molecular target: the molecule itself; assay: SEC; size-exclusion chromatography of the KIF14 constructs alone in solution, elution compared with protein standards (66, 44 and 25 kDa)

Molecule: Nc1ncnc2c1ncn2[C@@H]1O[C@H](COP(=O)(O)OP(=O)(O)O)[C@@H](O)[C@H]1O [ADP]
- cryo-EM structure (KIF14 K735 (MT-K735) [1]): The MT-K735-AAF and MT-K743-AAF maps contain strong densities associated with ADP

Molecule: Nc1ncnc2c1ncn2[C@@H]1O[C@H](COP(=O)(O)OP(=O)(O)OP(=O)(O)O)[C@@H](O)[C@H]1O [ATP]
- Microtubule-stimulated ATPase rate (KIF14 K755 (MT-K755)): Microtubule-stimulated ATPase rate of K735, K743, K748, and K755 constructs
- Microtubule-stimulated ATPase rate (KIF14 K735 (MT-K735) [2]): Microtubule-stimulated ATPase rate of K735, K743, K748, and K755 constructs
- Microtubule-stimulated ATPase rate (KIF14 K743 (MT-K743)): Microtubule-stimulated ATPase rate of K735, K743, K748, and K755 constructs
- Microtubule-stimulated ATPase rate (KIF14 K748 (MT-K748)): Microtubule-stimulated ATPase rate of K735, K743, K748, and K755 constructs

B1: KIF14 construct K772 (residues Asn-391 to Asp-772) (domain or fragment, mouse, UniProt L0N7N1 391-772, looked up)
chain: NSQVTVAVRVRPFSKREKTEKASQVVFTNGEEITVEHPDMKQVYSFIYDVSFWSFDECHPGYASQTTVYETLAAPLLDRAFEGYNTCLFAYGQTGSGKSYTMMGLNEEPGIIPRFCEDLFAQIAKKQTSEVSYHLEMSFFEVYNEKIHDLLVCKGENGQRKQPLRAREHPVSGPYVEGLSMNVVSSYSDIQSWLELGNKQRATAATGMNDKSSRSHSVFTLVMTQTKTEVVEGEEHDHRITSRINLVDLAGSERCSTAHSSGQRLKEGVSINKSLLTLGKVISALSEQANGKRVFIPYRESTLTWLLKESLGGNSKTAMIATVSPAASNIEETLSTLRYATQARLIVNIAKVNEDMNAKLIRELKAEIEKLKAAQRSNRNID
notes: KIF14, mouse (Mus musculus), full length 1674 amino acids; Dimer in solution by size-exclusion chromatography; source: E. coli BL21 (DE3) pLysS, purified (glutathione resin, cleaved on beads with PreScission protease)
- stoichiometry N [3]: 2
